# Measured values published in patent US12419869B2, “Methods of treating multiple sclerosis” (Vanda Pharmaceuticals Inc., priority 2021, dated 2025).
# Values joined by “and” are separate entries in the source; they are usually repeats but may differ in a detail not shown here. Equal entries are not always repeated.
# Columns and labels:
# Type in all cases: in vivo, human
# [1] = tested on: adult subjects with relapsing MS; experiment: Treatment-emergent adverse events and premature treatment discontinuation, phase III study (Study 1); conditions: in vivo
# Procedure: A total of 1438 MS patients have received PONVORY at doses of at least 2 mg daily. These patients were included in Study 1 (2-year active-controlled versus teriflunomide 14 mg) [see Clinical Studies (14)] and in a Phase 2 (6-month placebo-controlled) study in patients with MS and the uncontrolled extension studies.
# [2] = tested on: adult subjects with relapsing MS; experiment: EDSS, time to first 12-week / 24-week confirmed disability accumulation (CDA); conditions: for Hazard ratio, time to first 12-week CDA (3-month CDP), ponesimod vs teriflunomide: stratified Cox regression
# Text: (§1) A 12-week CDA is an increase of at least 1.5 in EDSS for subjects with a baseline EDSS score of 0.0 or an increase of at least 1.0 in EDSS for subjects with a baseline EDSS score of 1.0 to 5.0, or an increase of at least 0.5 in EDSS for subjects with a baseline EDSS score≥5.5 which is to be confirmed after 12 weeks.
# All EDSS measurements (with or without relapse, at a scheduled or unscheduled visit) were used to determine the onset of disability accumulation. However, EDSS scores used for confirmation of disability accumulation were obtained at a scheduled visit (i.e., unscheduled visits cannot be used as confirmatory visits) outside any ongoing relapse. In this context, relapse duration is defined as period between start and end dates if available and limited to 90 days from onset if end date is not available or duration is longer than 90 days.
# In order to confirm that the EDSS increase is persistent, all EDSS measurements between the onset and the 12-week EDSS confirmation (minus 7-day visit time-window) need to show an increase in EDSS, meeting the criteria for accumulation of disability as defined above.
# as §1, with “24-week” for “12-week”, “24” for “12”
# The primary endpoint was the annualized relapse rate (ARR) over the study period. Additional outcome measures included: 1) the number of new Gd-enhancing T1 lesions from baseline to Week 108, 2) the number of new or enlarging T2 lesions (without double-counting of lesions) from baseline to Week 108, and 3) the time to 3-month and 6-month confirmed disability progression. A confirmed disability progression was defined as an increase of at least 1.5 in EDSS for patients with a baseline EDSS score of 0, an increase of at least 1.0 in EDSS for patients with a baseline EDSS score of 1.0 to 5.0, or an increase of at least 0.5 in EDSS for patients with a baseline EDSS score at least 5.5, which was confirmed after 3 months and 6 months.
# [3] = tested on: adult subjects with relapsing MS; experiment: Brain MRI lesions (CUAL, Gd+ T1, new/enlarging T2) from baseline to Week 108; conditions: for CUAL mean estimate (Lesions per year): baseline to Week 108, negative binomial regression, Full Analysis Set
# Procedure: CUAL are new Gd+T1 lesions plus new or enlarging T2 lesions (without double-counting of lesions).
# MRI scans were performed at Visits 2 (Baseline), 10 (Week 60), and 14 (EOT) and at any unscheduled visit (U1, U2, etc.). If applicable, MRI scans also were performed at the corresponding visits in the PTOP (Visits 10A and 14A). Testing at all visits were performed up to 7 days prior to or after the visit date.
# MRI variables included the number and volume of new and total Gd+ lesions on T1-weighted MRI scans, number of new and enlarging lesions and lesion volume on T2-weighted MRI, and global measures of loss of brain tissue.
# T1-weighted imaging before and after i.v. administration of 0.1 mmol/kg body weight (=0.2 mL/kg) of Gd as well as PD-T2-weighted imaging was performed. Gd may cause nausea and vomiting and in very rare cases allergic reactions that could require immediate anti-anaphylactic therapy (such as steroids, epinephrine/adrenaline, etc.).
# Patients (18-55 years) with RMS (expanded disability status scale scores: 0-5.5) were randomized (1:1) to receive ponesimod (PON) 20 mg or teriflunomide (TER) 14 mg for 108 weeks. MRI assessments were: volume of T2 lesions; mean number of new gadolinium-enhancing (Gd+) T1 lesions and new/enlarging T2 lesions; and absence of active MRI lesions at week 108. NEDA-3 status (absence of confirmed relapse, Gd+T1 lesions and new/enlarging T2 lesions on annual MRIs, and 12-week confirmed disability accumulation) was evaluated from baseline to week 108.
structure (smiles),measurement,setting,value
"CCC/N=C1\S/C(=C\c2ccc(OC[C@H](O)CO)c(Cl)c2)C(=O)N1c1ccccc1C [Ponesimod, (R)-5-[3-chloro-4-(2,3-dihydroxy-propoxy)-benz[Z]ylidene]-2-([Z]-propylimino)-3-o-tolyl-thiazolidin-4-one]",Day 1 AESI Atrioventricular block first degree,[1]; human,(0.5) %
same,Day 1 AESI Bradycardia,[1]; human,(0.7) %
same,Day 1 AESI Bundle branch block left,[1]; human,(0.2) %
same,Day 1 AESI Bundle branch block right,[1]; human,(0.2) %
same,Day 1 AESI Defect conduction intraventricular,[1]; human,(0.4) %
same,Day 1 AESI Sinus arrhythmia,[1]; human,(0.2) %
same,Day 1 AESI Sinus bradycardia,[1]; human,(0.2) %
same,"AE leading to discontinuation, SOC Blood and lymphatic system disorders","[1]; human, 2 year",(0.5) %
same,"AE leading to discontinuation, SOC Cardiac disorders","[1]; human, 2 year",(0.2) %
same,"AE leading to discontinuation, SOC Eye disorders","[1]; human, 2 year",(0.9) %
same,"AE leading to discontinuation, SOC Gastrointestinal disorders","[1]; human, 2 year",(0.7) %
same,"AE leading to discontinuation, SOC General disorders and administration site conditions","[1]; human, 2 year",(0.5) %
same,"AE leading to discontinuation, SOC Hepatobiliary disorders","[1]; human, 2 year",(0.5) %
same,"AE leading to discontinuation, SOC Investigations","[1]; human, 2 year",(2.1) %
same,"AE leading to discontinuation, SOC Musculoskeletal and connective tissue disorders","[1]; human, 2 year",(0.2) %
same,"AE leading to discontinuation, SOC Neoplasms benign, malignant and unspecified (incl cysts and polyps)","[1]; human, 2 year",(0.2) %
same,"AE leading to discontinuation, SOC Nervous system disorders","[1]; human, 2 year",(0.4) %
same,"AE leading to discontinuation, SOC Pregnancy, puerperium and perinatal conditions","[1]; human, 2 year",(0.5) %
same,"AE leading to discontinuation, SOC Psychiatric disorders","[1]; human, 2 year",(0.2) %
same,"AE leading to discontinuation, SOC Respiratory, thoracic and mediastinal disorders","[1]; human, 2 year",(1.2) %
same,"AE leading to discontinuation, SOC Skin and subcutaneous tissue disorders","[1]; human, 2 year",(0.2) %
same,"AE leading to discontinuation, SOC Social circumstances","[1]; human, 2 year",(0.4) %
same,"AE leading to discontinuation, SOC Vascular disorders","[1]; human, 2 year",(0.5) %
same,AESI Effect on heart rate and rhythm (including hypotension),"[1]; human, 2 year",(5.1) %
same,AESI Non-skin malignancy,"[1]; human, 2 year",(0.2) %
same,AESI Skin malignancy,"[1]; human, 2 year",(0.9) %
same,"Discontinuation reason: Physician decision, Adverse event","[1]; human, 2 year",(5.1) %
same,Discontinuation reason: Pre-specified study treatment discontinuation criteria,"[1]; human, 2 year",(2.1) %
same,"Discontinuation reason: Subject decision, Tolerability related","[1]; human, 2 year",(1.4) %
same,Incidence of basal cell carcinoma,"[1]; human, 2 year",0.4%
same,Overall rate of infections,"[1]; human, 2 year",54.2%
same,Subjects discontinued due to AEs or tolerability related reasons,"[1]; human, 2 year",6.5%
same,Subjects who prematurely discontinued study treatment,"[1]; human, 2 year",(16.6) %
same,Subjects with at least one Drug-Related AE,"[1]; human, 2 year",(49.2) %
same,Subjects with at least one Severe AE,"[1]; human, 2 year",(6.9) %
same,TEAE ALT increased,"[1]; human, 2 year",19.5%
same,TEAE headache,"[1]; human, 2 year",11.5%
same,TEAE nasopharyngitis,"[1]; human, 2 year",19.3%
same,TEAE upper respiratory tract infection,"[1]; human, 2 year",10.6%
same,Adverse reaction: C-reactive protein increased,"[1]; human, 2 years",2%
same,Adverse reaction: Cough,"[1]; human, 2 years",4%
same,Adverse reaction: Dizziness,"[1]; human, 2 years",5%
same,Adverse reaction: Dyspnea,"[1]; human, 2 years",5%
same,Adverse reaction: Hepatic transaminase elevation,"[1]; human, 2 years",23%
same,Adverse reaction: Hypercholesterolemia,"[1]; human, 2 years",2%
same,Adverse reaction: Hypertension,"[1]; human, 2 years",10%
same,Adverse reaction: Pain in extremity,"[1]; human, 2 years",4%
same,Adverse reaction: Pyrexia,"[1]; human, 2 years",2%
same,Adverse reaction: Somnolence,"[1]; human, 2 years",3%
same,Adverse reaction: Urinary tract infection,"[1]; human, 2 years",6%
same,Adverse reaction: Vertigo,"[1]; human, 2 years",2%
same,Discontinuation reason: Lost to follow-up,[1],(0.4) %
same,Discontinuation reason: Physician decision,[1],(7.1) %
same,"Discontinuation reason: Physician decision, Lack of efficacy/treatment failure",[1],(0.7) %
same,"Discontinuation reason: Physician decision, Other",[1],(1.2) %
same,Discontinuation reason: Reason not provided,[1],(0.2) %
same,Discontinuation reason: Subject decision,[1],(6.9) %
same,"Discontinuation reason: Subject decision, Efficacy related",[1],(1.2) %
same,"Discontinuation reason: Subject decision, Not known",[1],(0.9) %
same,"Discontinuation reason: Subject decision, Other",[1],(3.4) %
same,Proportion of Patients with 3-month Confirmed Disability Progression,[2]; Kaplan-Meier estimates at Week 108,10.8%
same,"Hazard ratio, time to first 24-week CDA, ponesimod vs teriflunomide",[2]; exploratory,0.84
same,Reduction of risk of 12-week CDA compared to teriflunomide 14 mg,[2]; not statistically significant,17%
same,Reduction of risk of 24-week CDA compared to teriflunomide 14 mg,[2]; not statistically significant,16%
same,"Hazard ratio, time to first 12-week CDA (3-month CDP), ponesimod vs teriflunomide",[2],0.83
same,"Hazard ratio, time to first 12-week CDA (3-month CDP), ponesimod vs teriflunomide",[2]; listed as PONVORY,0.83 (p = 0.29)
same,"Hazard ratio, time to first 12-week CDA (3-month CDP), ponesimod vs teriflunomide",[2]; listed as ponesimod,0.83
same,Subjects with 12-week CDA,[2]; up to EOS,10.1%
same,Subjects with 24-week CDA,[2]; up to EOS,8.1%
same,CUAL mean estimate (Lesions per year),[3],1.405 lesions per year
same,CUAL mean estimate (Lesions per year),[3]; listed as ponesimod,1.405 lesions per year
same,CUAL treatment effect (Rate Ratio) ponesimod vs teriflunomide,[3]; baseline to week 108,0.444 and 0.44
same,LS mean difference (PON-TER) in change from baseline in total volume of T2 lesions,[3]; baseline to week 108,−399.2 mm^3
same,Mean number of new Gd+ T1 lesions per scan / per MRI,[3]; baseline to week 108,0.18
same,Mean number of new/enlarging T2 lesions per year,[3]; baseline to week 108,1.40
same,"Rate ratio, new Gd+ T1 lesions per scan, PON vs TER",[3]; baseline to week 108,0.42
same,"Rate ratio, new/enlarging T2 lesions per year, PON vs TER",[3]; baseline to week 108,0.44
same,Raw mean lesions/year (CUAL),[3]; baseline to week 108,1.559 lesions/year
same,Reduction of number of CUALs compared to teriflunomide 14 mg,[3]; baseline to week 108,56%
same,Total number of lesions (CUAL),[3]; baseline to week 108,1671
same,"Relative reduction, T1 Gd-enhancing lesions per MRI",[3]; vs teriflunomide 14 mg,58.5% (p < 0001)
same,"Relative reduction, new or enlarging T2 hyperintense lesions per year",[3]; vs teriflunomide 14 mg,55.7% (p < 0001)
same,Odds ratio PON vs TER for absence of new Gd+ T1 lesions,[3]; week 108,2.18
same,Odds ratio PON vs TER for absence of new/enlarging T2 lesions,[3]; week 108,1.71
